Test results published in patent US10894941B2, “Microfluidic multi-well-based cell culture testing device” (QUANTA MATRIX CO,. LTD., priority 2013, dated 2021).

Assays:
Type in all cases: cell-based
[1] = system: E. coli ATCC 25922; experiment: double infection imaging in MAC chip, antibiotic susceptibility; conditions: gentamicin 32 μg/mL, erythromycin 8 μg/mL; 3 h incubation; 2% agarose
Description: (§1) The experimental conditions are as follows: • Strains • E. coli ATCC 25922 (rod-shaped strain) • E. faecalis ATCC 29212 (spherical strain) • Antibiotics • Gentamicin (concentration: 32 μg/mL)
(§2) […] At this time, the coexistence of the rod-shaped bacteria and the spherical bacteria was confirmed. It could also be confirmed whether double infection with the bacteria occurred.

[2] = system: E. faecalis ATCC 29212; experiment: as above; conditions: gentamicin 32 μg/mL, erythromycin 8 μg/mL; 3 h incubation; 2% agarose
Description: as §1, §2

[3] = system: E. faecalis strain; experiment: antibiotic susceptibility testing (MIC) using the MAC chip; conditions: agarose, 37° C., 4-h incubation
Description: For this experiment, an E. faecalis solution was homogenized with liquid agarose and was injected into the chip. The agarose was gelled at room temperature. Thereafter, liquid penicillin as an antibiotic was injected into the well spaces. The chip was then incubated at an incubator at 37° C. and the results were observed after 4-h incubation.
The MIC of penicillin (2 μg/ml) could be obtained in 4 hours. In contrast, according to micro-dilution testing (MDT), a much longer time (18 hours) was consumed to obtain the MIC of penicillin.

Row | Compound | susceptibility [1] | susceptibility [2] | MIC [3] [µg/mL]
1 | CC[C@H]1OC(=O)[C@H](C)[C@@H](O[C@H]2C[C@@](C)(OC)[C@@H](O)[C@H](C)O2)[C@H](C)[C@@H](O[C@@H]2O[C@H](C)C[C@H](N(C)C)[C@H]2O)[C@](C)(O)C[C@@H](C)C(=O)[C@H](C)[C@@H](O)[C@]1(C)O [Erythromycin] | Susceptible to E. faecalis ATCC 29212 only | Susceptible to E. faecalis ATCC 29212 only | 
2 | Gentamicin | MICs are in the susceptible range for both strains | MICs are in the susceptible range for both strains | 
3 | penicillin |  |  | 2
